Experimental data from US6355785B1, “Guanosine-rich oligonucleotide integrase inhibitors” (Aronex Pharmaceuticals, Inc., priority 1993, dated 2002).
Several values for one entry are separate records, joined by “and”; a condition that tells them apart may be missing. Identical values can stand only once. Like-named read-outs stand apart in the source and are kept apart here.

Tests used:
[1] = test system: HIV-1 strains (SKI, RF, DV, IIIB, ADP/141); assay: microbe, parasite or virus in culture; type: cell-based; settings: for IC90: read-out: IC90 (cpe assay)
HIV-1 clinical isolates = assay: microbe, parasite or virus in culture; type: cell-based; settings: PBLs, read-out: IC50 viral production
[2] = set-up: species or system cynomolgus monkeys; settings: cynomolgus monkey, in vivo
Method: Dosing. Twelve experimentally naive cynomolgus monkeys were assigned to four groups of three animals each. Prior to dosing, each animal was lightly sedated with a combination of ketamine (1 0 mg/kg) and diazepam (0.5 mg/kg), and a catheter was introduced into the femoral artery for recording central arterial pressure. Monkeys were given a single intravenous infusion of 5, 20, or 50 mg AR177/kg or saline over ten minutes through a cephalic vein catheter using a Harvard infusion pump. Arterial blood samples were drawn at −10, +10, +20, +40, +60 and +120 minutes relative to the initiation of infusion into EDTA-containing tubes for hematology, complement factors, coagulation assay, serum chemistry, and plasma AR177 determination. At 24 hours post-infusion, blood was drawn via the femoral vein into EDTA-containing tubes for these same parameters. The concentration of AR177 in dosing solutions was confirmed post experiment by absorbance at 280 nm on a spectrophotometer. For the determination of AR177 by HPLC, the plasma fraction was obtained by low speed centrifugation of blood, and stored at −20° C. until used. Electrocardiograms (ECGs), central pressure, and heart rate were recorded continuously for 120 minutes following the initiation of doing. Table E-1 summarizes the study design. The animals were observed twice daily pharmacotoxic signs and general health beginning two days before dosing and for seven days following dosing. The monkeys were not necropsied at the end of the study.
Hematology and coagulation parameters. The following are determined: red blood cell count and morphology, total and differential white blood cells, hemoglobin, hematocrit, prothrombin time, fibrinogen, mean cell hemoglobin, mean corpuscular volume, mean corpuscular hemoglobin concentration, platelet count, and activated partial thromboplastin time. Hematology parameters were determined at Sierra Nevada Laboratories (Reno, Nev.).

## 5′-gtggtgggtgggtgggt-3′ [T30177] (GTGGTGGGTGGGTGGGT; phosphorothioate termini, further chemistry not given here) [pPT version of parent compound I100-15, 17 mer]
[1]; CEM-SS
  increase in IC50 when MOI of HIV-1RF changed from 0.01 to 1.28: 14 fold
[1]; HIV-1 DV, SUP T1, read-out: IC50 virus production
  IC50: 60 ± 4 nM
[1]; HIV-1 IIIB, AA5, read-out: IC50 virus production
  IC50: < 320 nM
[1]; HIV-1 IIIB, CEM-SS or MT4, read-out: Antiviral Assay IC50 IIIB
  IC50: 2830 nM
[1]; HIV-1 IIIB, CEM-SS, read-out: IC50 virus production
  IC50: 2800 nM and 2830 nM
[1]; HIV-1 IIIB, MT2, read-out: IC50 virus production
  IC50: 1940 ± 120 nM
[1]; HIV-1 IIIB, MT4, read-out: IC50 virus production
  IC50: 150 ± 20 nM
[1]; HIV-1RF in MT2 cells
  TI (therapeutic index): 226
[1]; HIV-1 RF, CEM-SS or MT4, read-out: Antiviral Assay IC50 RF
  IC50: 75 nM
[1]; HIV-1 RF, CEM-SS, MOI 0.01, read-out: IC50 virus production
  IC50: 75 nM
[1]; HIV-1 RF, MT4, read-out: IC50 virus production
  IC50: 37 ± 30 nM
[1]; HIV-1SKI in CEM-SS cells
  TI (therapeutic index): 3680
[1]; HIV-1 SKI, CEM-SS or MT4, read-out: Antiviral Assay IC50 SKI
  IC50: 25 nM
[1]; HIV-1 SKI, CEM-SS, MOI 0.01, read-out: IC50 virus production
  IC50: 25 ± 6 nM
[1]; HIV-1 SKI, MT2, read-out: IC50 virus production
  IC50: 60 ± 1 nM
[1]; IIIB (MT4), MOI 0.01, read-out: IC50 (cpe assay)
  IC50: 2700 nM
[1]; IIIB (MT4), MOI 0.01
  IC90: 9200 nM
[1]; IIIB (MT4), MOI 0.02, read-out: IC50 (cpe assay)
  IC50: 3100 nM
[1]; IIIB (MT4), MOI 0.02
  IC90: 6600 nM
[1]; IIIB (MT4), MOI 0.3, read-out: IC50 (cpe assay)
  IC50: 3380 nM
[1]; IIIB (MT4), MOI 0.3
  IC90: 7000 nM
[1]; IIIB (MT4), MOI 1, read-out: IC50 (cpe assay)
  IC50: 6800 nM
[1]; IIIB (MT4), MOI 1
  IC90: 26000 nM
[1]; RF (CEM-SS), MOI 0.01, read-out: IC50 (cpe assay)
  IC50: 200 nM
[1]; RF (CEM-SS), MOI 0.01
  IC90: 500 nM
[1]; RF (CEM-SS), MOI 0.02, read-out: IC50 (cpe assay)
  IC50: 410 nM
[1]; RF (CEM-SS), MOI 0.02
  IC90: 1500 nM
[1]; RF (CEM-SS), MOI 0.04
  IC90: 1560 nM
[1]; RF (CEM-SS), MOI 0.08, read-out: IC50 (cpe assay)
  IC50: 700 nM
[1]; RF (CEM-SS), MOI 0.08
  IC90: 1560 nM
[1]; RF (CEM-SS), MOI 0.16, read-out: IC50 (cpe assay)
  IC50: 870 nM
[1]; RF (CEM-SS), MOI 0.16
  IC90: 1600 nM
[1]; RF (CEM-SS), MOI 0.32, read-out: IC50 (cpe assay)
  IC50: 1250 nM
[1]; RF (CEM-SS), MOI 0.32
  IC90: 4700 nM
[1]; RF (CEM-SS), MOI 0.64, read-out: IC50 (cpe assay)
  IC50: 2640 nM
[1]; RF (CEM-SS), MOI 0.64
  IC90: 4750 nM
[1]; RF (CEM-SS), MOI 1.28, read-out: IC50 (cpe assay)
  IC50: 2810 nM
[1]; RF (CEM-SS), MOI 1.28
  IC90: 4770 nM
[1]; anti-HIV-1 virus production, read-out: Cell Culture IC50
  IC50: 75 nM
HIV-1 clinical isolates; clinical isolate 942716
  IC50: 860 ± 6 nM
HIV-1 clinical isolates; clinical isolate 942751
  IC50: 380 ± 3 nM
HIV-1 clinical isolates; clinical isolate BAKI (SI)
  IC50: 230 ± 5 nM
HIV-1 clinical isolates; clinical isolate BLCH (NSI)
  IC50: 3080 ± 6 nM
HIV-1 clinical isolates; clinical isolate JOGA (NSI)
  IC50: 330 ± 4 nM
HIV-1 clinical isolates; clinical isolate N. Amer. #1
  IC50: 250 ± 3 nM
HIV-1 clinical isolates; clinical isolate N. Amer. #2
  IC50: 2920 ± 5 nM
HIV-1 clinical isolates; clinical isolate ROJO (SI)
  IC50: 3900 ± 20 nM
HIV-1 clinical isolates; clinical isolate S. E. Asia
  IC50: 580 ± 3 nM
HIV-1 clinical isolates; clinical isolate VIHU (NSI)
  IC50: 1300 ± 20 nM
HIV-1 clinical isolates; clinical isolate WEJO (SI)
  IC50: 300 ± 10 nM
HIV-1 clinical isolates; clinical isolate WOME (SI)
  IC50: 710 ± 2 nM
[2]
  no effect plasma AR177 concentration versus aPTT: 60-100 ug AR177/mL
  plasma AR177 concentration at doubling of aPTT: 100-250 ug AR177/mL
  plasma AR177 concentration at tripling of aPTT: 250-300 fig AR177/mL
